Several values for one entry are separate records, joined by “and”; a condition that tells them apart may be missing. Equal entries are not always repeated. Where two headings read alike, the source gives them in different places.
Target: telomerase (Homo sapiens, UniProt O14746)
Assay: Telomerase repeat processivity IC50: modified dNTP titrated into reactions with all four natural dNTPs
Type: biochemical
Design: made in house; anti-FLAG immunopurification, eluted with 3xFLAG peptide
Summary of the method: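 Immunopurified telomerase was run with cellular-relevant levels of all four natural dNTPs plus modified dNTP at 0 to 10,000 μM, for 1 h at 37 °C, and products were resolved on a denaturing gel by phosphorimaging. Repeat processivity R1/2 = −ln(2)/slope of ln(100−%LB) vs repeat number. IC50 is the concentration halving repeat processivity.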

[1] = dose-response fit of processivity R 1/2, individual replicates
[2] = dose-response fit of processivity R 1/2 vs log(concentration), individual replicates

Chain of telomerase (O14746 whole entry): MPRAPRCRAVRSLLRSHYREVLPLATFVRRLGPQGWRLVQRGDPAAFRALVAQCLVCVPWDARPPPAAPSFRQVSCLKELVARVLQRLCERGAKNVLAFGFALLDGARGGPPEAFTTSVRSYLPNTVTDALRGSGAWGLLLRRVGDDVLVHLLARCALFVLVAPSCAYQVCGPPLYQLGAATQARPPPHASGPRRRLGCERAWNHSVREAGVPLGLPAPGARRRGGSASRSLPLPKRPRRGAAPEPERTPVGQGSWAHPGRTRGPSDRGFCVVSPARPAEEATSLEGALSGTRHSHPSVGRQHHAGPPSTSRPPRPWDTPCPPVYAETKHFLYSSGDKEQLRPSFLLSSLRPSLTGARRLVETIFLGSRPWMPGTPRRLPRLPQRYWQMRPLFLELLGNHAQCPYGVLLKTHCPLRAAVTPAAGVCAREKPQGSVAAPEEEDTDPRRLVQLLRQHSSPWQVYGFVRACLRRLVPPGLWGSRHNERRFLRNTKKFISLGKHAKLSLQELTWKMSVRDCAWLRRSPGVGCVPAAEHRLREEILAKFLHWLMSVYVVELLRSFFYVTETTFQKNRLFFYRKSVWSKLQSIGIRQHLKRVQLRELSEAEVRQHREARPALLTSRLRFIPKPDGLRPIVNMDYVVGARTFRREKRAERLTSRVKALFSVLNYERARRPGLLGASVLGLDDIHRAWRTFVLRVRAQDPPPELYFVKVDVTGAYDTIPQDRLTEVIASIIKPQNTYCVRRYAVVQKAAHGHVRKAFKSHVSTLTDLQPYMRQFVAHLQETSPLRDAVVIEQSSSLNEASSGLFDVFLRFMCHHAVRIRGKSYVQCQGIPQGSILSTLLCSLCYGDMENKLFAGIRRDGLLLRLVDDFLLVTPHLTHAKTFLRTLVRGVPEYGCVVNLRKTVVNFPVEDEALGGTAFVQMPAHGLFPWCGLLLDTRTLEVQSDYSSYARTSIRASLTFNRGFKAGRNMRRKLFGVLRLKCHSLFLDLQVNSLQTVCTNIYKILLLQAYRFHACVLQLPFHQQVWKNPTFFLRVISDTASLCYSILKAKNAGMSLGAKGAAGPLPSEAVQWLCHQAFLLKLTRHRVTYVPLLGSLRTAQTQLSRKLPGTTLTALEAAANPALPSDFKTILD

In the case of O=c1[nH]cnc2c1ncn2C1CCC(COP(=O)(O)OP(=O)(O)OP(=O)(O)O)O1 (stereo not drawn) [ddITP], the IC50 (cellular relevant natural dNTPs, modified dNTP titrated 0 to 10,000 μM, based on repeat processivity, mean ± SD, read-out: Telomerase processivity IC50) is reported as 61 ± 23 µM, the “YIntercept (line fit of ln(100-%LB) vs # telomere repeats)” value (ddITP 31μM) is reported as 3.68 and 3.90 and 3.32 and the “ln(100-%LB)” value (ddITP 31μM, telomere repeat 1) is reported as 3.63 and 3.77 and 3.47. The “ln(100-%LB)” value (ddITP 31μM, telomere repeat 2) was 2.96 and 3.17 and 2.59, the “ln(100-%LB)” value (ddITP 31μM, telomere repeat 3) was 2.31 and 2.52 and 1.69 and the “ln(100-%LB)” value (ddITP 31μM, telomere repeat 4) was 1.98 and 2.18 and 1.18. The “YIntercept (line fit of ln(100-%LB) vs # telomere repeats)” value (ddITP 62μM) was 4.03 and 4.15, the “ln(100-%LB)” value (ddITP 62μM, telomere repeat 1) was 3.64 and 3.75 and the “ln(100-%LB)” value (ddITP 62μM, telomere repeat 2) was 2.81 and 2.79. For the same compound, the “ln(100-%LB)” value (ddITP 62μM, telomere repeat 3) was 1.96 and 1.84, the “ln(100-%LB)” value (ddITP 62μM, telomere repeat 4) was 1.44 and 1.17 and the “ln(100-%LB)” value (ddITP 62μM, telomere repeat 5) was 0.94 and 0.56. For the same compound, the “YIntercept (line fit of ln(100-%LB) vs # telomere repeats)” value (ddITP 250μM) was 4.62 and 3.98, the “ln(100-%LB)” value (ddITP 250μM, telomere repeat 1) was 3.84 and 3.61 and the “ln(100-%LB)” value (ddITP 250μM, telomere repeat 2) was 2.72 and 2.32. The “ln(100-%LB)” value (ddITP 250μM, telomere repeat 3) was 1.42 and 1.15, the “ln(100-%LB)” value (ddITP 250μM, telomere repeat 4) was 0.59 and 0.39 and the “Slope (line fit of ln(100-%LB) vs # telomere repeats)” value (ddITP 500μM) was -0.95. The “YIntercept (line fit of ln(100-%LB) vs # telomere repeats)” value (ddITP 500μM) was 4.49, the “ln(100-%LB)” value (ddITP 500μM, telomere repeat 1) was 3.63 and 3.72 and the “ln(100-%LB)” value (ddITP 500μM, telomere repeat 2) was 2.49 and 2.52. The “ln(100-%LB)” value (ddITP 500μM, telomere repeat 3) was 1.54 and 1.27, the “ln(100-%LB)” value (ddITP 500μM, telomere repeat 4) was 0.70 and 0.51 and the “YIntercept (line fit of ln(100-%LB) vs # telomere repeats)” value (ddITP 750μM) was 4.67 and 4.49. The “ln(100-%LB)” value (ddITP 750μM, telomere repeat 1) was 3.72 and 3.79, the “ln(100-%LB)” value (ddITP 750μM, telomere repeat 2) was 2.57 and 2.74 and the “ln(100-%LB)” value (ddITP 750μM, telomere repeat 3) was 1.55 and 1.58. For the same compound, the “ln(100-%LB)” value (ddITP 750μM, telomere repeat 4) was 0.67 and 0.79, the “YIntercept (line fit of ln(100-%LB) vs # telomere repeats)” value (ddITP 1000μM) was 4.63 and 4.20 and the “ln(100-%LB)” value (ddITP 1000μM, telomere repeat 1) was 3.82 and 3.80. The “ln(100-%LB)” value (ddITP 1000μM, telomere repeat 2) was 3.01 and 3.04, the “ln(100-%LB)” value (ddITP 1000μM, telomere repeat 3) was 2.22 and 2.25 and the “ln(100-%LB)” value (ddITP 1000μM, telomere repeat 4) was 1.56 and 1.76. For the same compound, the “ln(100-%LB)” value (ddITP 1000μM, telomere repeat 5) was 0.86 and 1.29, the “Slope (line fit of ln(100-%LB) vs # telomere repeats)” value (ddITP 1500) was -0.86 and the “YIntercept (line fit of ln(100-%LB) vs # telomere repeats)” value (ddITP 1500) was 4.62 and 4.48. The “ln(100-%LB)” value (ddITP 1500, telomere repeat 1) was 3.74 and 3.65, the “ln(100-%LB)” value (ddITP 1500, telomere repeat 2) was 2.90 and 2.79 and the “ln(100-%LB)” value (ddITP 1500, telomere repeat 3) was 2.03 and 1.76. The “ln(100-%LB)” value (ddITP 1500, telomere repeat 4) was 1.25 and 1.21, the “ln(100-%LB)” value (ddITP 1500, telomere repeat 5) was 0.25 and 0.17 and the “Best-fit values HillSlope” value [1] was -1.214 and -1.087 and -1.6. For the same compound, the “Best-fit values Span” value [1] was 1.373 and 2.642 and 1.489, the “Best-fit values LogIC50” value (dose-response fit of processivity R 1/2, log of concentration in μM, individual replicates) was 1.601 and 1.931 and 1.751 and the “Best-fit values Bottom” value [2] was 0.6806 and 0.1353 and 0.7679. The “Best-fit values Top” value [2] was 2.054 and 2.778 and 2.257, the IC50 (log of processivity IC50 (concentration in μM), Supplementary Fig 8b, read-out: Log IC50 (converted)) was 63.1 µM and the “Processivity R 1/2” value (modified dNTP concentration 31.25 μM, individual replicates n1-n3) was 1.52 and 2.08 and 1.82. For the same compound, the “Processivity R 1/2” value (modified dNTP concentration 62.5 μM, individual replicates) was 1.13 and 1.82, the “Processivity R 1/2” value (modified dNTP concentration 250 μM, individual replicates) was 0.87 and 0.71 and the “Processivity R 1/2” value (modified dNTP concentration 500 μM, individual replicates) was 0.8 and 0.73 (2×). The “Processivity R 1/2” value (modified dNTP concentration 750 μM, individual replicates) was 0.8 and 0.49, the “Processivity R 1/2” value (modified dNTP concentration 1000 μM, individual replicates) was 0.69 (2×) and 0.47 and the “Processivity R 1/2” value (modified dNTP concentration 1500 μM, individual replicates) was 0.81 and 0.26 and 0.88. For the same compound, the “Processivity R 1/2” value (modified dNTP concentration 2000 μM, individual replicates) was 0.45 and 0 and 0.81, the IC50 (repeat processivity R 1/2, individual replicates N1-N3, read-out: Best-fit values IC50) was 39.9 µM and 85.3 µM and 56.4 µM and the IC50 (repeat processivity R 1/2, mean of replicates, read-out: Mean IC50) was 60.5 µM.

From publication PMC7576608, “Mechanisms of telomerase inhibition by oxidized and therapeutic dNTPs” (Nature Communications, 2020)
